Three molecules from patent US9260388B2, “Process for preparing alkyl pyroglutamic acids” (DOW GLOBAL TECHNOLOGIES LLC, priority 2011, dated 2016) can be followed below.

What all share (assay type): physicochemical
A short description of data set [1]: Shake foam test (foam height). To be noted: sodium salt, 0.1 wt % solution, shaken 20 times, t=0, average of three replicates. The procedure:
Foaming profile of the N-alkyl pyroglutamates are evaluated using a shake foam test, and evaluated against sodium laureth sulfate. For each sample, a 0.1 wt % solution is prepared by diluting 50 mg active to 50 g in water. The 0.1 wt % solution is added to a 100 mL graduated cylinder and capped. The cylinder is shaken by hand 20 times, each time the cylinder is inverted and brought back to an upright position. Foam height (in mL) is defined as the highest point of the top layer of the foam in the graduated cylinder. If the top of the foam was not flat, the midpoint of the top of the foam was reported. Foam height is read immediately after the solution settled (t=0). Three replicates are done for each sample, and the reported foam height (in mL) is the average reading of the three replicates.

The nature of data set [2]: Critical micelle concentration (Kibron CMC) and surface tension, Kibron Delta-8 multichannel microtensiometer. The conditions noted are these: for Kibron CMC: sodium salt in water, twelve two-fold dilutions starting at 1 wt %; for Surface Tension (1%): sodium salt, 1 wt % in water. How it is done: The critical micelle concentration (Kibron CMC) and surface tension of the N-alkyl pyroglutamic acids (as Na^+ salts) and related commercial surfactants were evaluated. For each sample, a total of twelve dilutions starting at 1 wt % were prepared, reducing the concentration in each dilution by half by taking an aliquot of the previous dilution and adding the same amount of water. The surface tension of all 12 dilutions was measured using a Kibron Delta-8 multichannel microtensiometer. Sample volume for each analysis was 50 μL.

Data set [3] is described as follows: Water solubility of sodium salts. To be noted: for pH: pH of the sodium salt solution after neutralization. How it is done: Selected N-alkyl pyroglutamic acids are converted into their sodium salt by neutralizing them in water with sodium hydroxide. In general, a known amount of sample is placed in a vial and a known amount of water is added. Sample is neutralized with 25 wt % sodium hydroxide in water until pH is >7. Mild heating (50° C.) is applied when necessary to aid dissolution. The final mass is recorded. The weight percent of the solution is determined by mass of the sodium salt over the total mass of solution, and multiplying by 100. The pH of the solution is recorded after neutralization. No effort was done to prepare a saturated solution.

Molecules are shown by their SMILES.

In the case of `CCC(CCCC(C)CCCC(C)C)CCN1C(=O)CCC1C(=O)O` (stereo not shown) [Example 1], the “Shake Foam t = 0” value in data set [1] is reported as 36 mL. For the same molecule, in data set [2], the “Kibron CMC” value is on record as 625 ppm and the “Surface Tension (1%)” value was found to be 38 Dynes/cm. Moreover, in data set [3], the pH came out at 10.0.
On the same counts, the results for `CCCCCC(CCC)CN1C(=O)CCC1C(=O)O` (stereo not shown) [Example 2] are 11 mL, over 10000 ppm, 34 Dynes/cm and 7.3.
As to `CCCCCCCCCCC(CCCCCCCC)CN1C(=O)CCC1C(=O)O` (stereo not shown) [Example 4], the “Shake Foam t = 0” value in data set [1] amounted to 29 mL. Further, in data set [2], the “Kibron CMC” value stood at 78 ppm and the “Surface Tension (1%)” value amounted to 29 Dynes/cm. In addition, the pH in data set [3] stood at 7.1. In data set [3] (sodium salt in water, neutralized with NaOH, no saturated solution prepared), the Solubility turned out to be 15.4 wt %.
